According to US4304778A, “4-Aminoquinazoline derivatives having fungicidal, anti-insect and acaricidal properties” (Sankyo Company Limited, priority 1978, dated 1981):

Assays:
[1] = test system: guppies; assay: Toxicity to guppies; type: in vivo; settings: LC50 after 48 hours classified
Experimental: In this example the toxicity of the compounds of the invention towards guppies was estimated and is compared with that of corresponding compounds as disclosed and claimed in our co-pending U.S. Application No. 910,117 filed May 30, 1978. The LC50 was determined after 48 hours and the toxicity to guppies was classified into the rankings (i), (ii) and (iii) according to the following classification scheme: […]

[2] = test system: cockroach larvae; settings: 24 hours; 25° C.
[3] = test system: Phytophthora infestans; type: in vivo; settings: tomato late blight; 500 ppm; after 5 days; average per leaf
[4] = test system: Sphaerotheca fuliginea; assay: Effect on powdery mildew in cucumbers; type: in vivo; settings: cucumber powdery mildew; 500 ppm; 10 days
Experimental: (§1) In the following Examples, wettable powders prepared according to the procedures of Example 4 were used, each powder containing 50% by weight of the active compound of this invention.
Cucumber seedlings (variety Sagamihanshiro), planted two per 12 cm diameter pot, were used as host plants at the stage when the first leaf was fully grown and open. Each test group of three pots was treated with one of the active compounds shown in Table 5 by spraying an aqueous suspension containing 500 ppm of the active compound onto the plants at the rate of 20 ml per 3 pots. After air-drying the plants, the host plants were inoculated with the microorganism Sphaerotheca fuliginea by brushing already infected cucumber leaves with a small brush and letting the microorganism fall onto the host plants. The inoculated plants were kept in a greenhouse at 24°-26° C. for 10 days. At the end of this time, the percentage diseased area was measured.

[5] = test system: final instar larvae of the diamondback moth (Plutella xylostella); assay: Repellent and emergence-inhibition effect on the final instar larvae of diamondback moths; type: in vivo; design: key to Extent of ingestion: -: no ingestion; ±: very little ingestion; +: some ingestion; ++: considerable ingestion; settings: 72 hours; for pest or weed control at 500 ppm: Plutella xylostella, read-out: Emergence-inhibition rate (%); for Extent of ingestion: radish leaves dipped in 500 ppm
Excerpt: as §1
Leaves of the Japanese radish (Raphanus sativus) were dipped for 30 seconds into a liquid containing 500 ppm of one of the compounds shown in Table 9. After air-drying the leaves, each leaf was placed into a plastic icecream cup (diameter 8 cm) and 15 final instar larvae of the diamondback moth (Plutella xylostella) were placed into each cup. Each test was conducted in duplicate and the results were averaged.

[6] = test system: third instar larvae of the tobacco cutworm; assay: Repellent action against the third instar larvae of the tobacco cutworm; type: in vivo; design: key: -: no ingestion; ±: very little ingestion; +: some ingestion; ++: considerable ingestion; settings: cabbage leaves dipped in 500 ppm, 72 hours
Excerpt: as §1
Cabbage leaves were dipped for 30 seconds in an aqueous suspension containing 500 ppm of one of the active compounds shown in Table 6. After air-drying, each leaf was placed into a plastic receptacle having a diameter of 8 cm and the third instar larvae (10 per receptacle) of the tobacco cutworm were released onto the leaves. After 72 hours, the extent of ingestion of the leaves was measured, using two receptacles for each test compound. The results are shown in Table 6, using the following notation (which is also employed, with the same meaning, in following Table 9): […]

Structure (SMILES)	Toxicity ranking [1]	Diseased area (%) [3] [%]	Diseased area (%) [4] [%]	further results
Cc1ccccc1OCCNc1ncnc2ccccc12 [Compound A, 4-{N-[2-(2-methylphenoxy)ethyl]amino}quinazoline, reference compound]	iii (all fish dead at 0.5 ppm)	–	–	–
CC(C)c1ccccc1OCCNc1ncnc2ccccc12 [Compound B, 4-{N-[2-(2-isopropylphenoxy)ethyl]amino}quinazoline, reference compound]	iii (all fish dead at 0.5 ppm)	–	–	–
Cc1ccc(OCCNc2ncnc3ccccc23)c(C)c1 [Compound C, 4-{N-[2-(2,4-dimethylphenoxy)ethyl]amino}quinazoline, reference compound]	iii (all fish dead at 0.5 ppm)	–	–	–
Cc1cc(Cl)ccc1OCCNc1ncnc2ccccc12 [Compound D, 4-{N-[2-(4-chloro-2-methylphenoxy)ethyl]amino}quinazoline, reference compound]	iii (all fish dead at 0.5 ppm)	–	–	–
CN(CCOc1ccccc1)c1ncnc2ccccc12 [Compound No. 4, 4-[N-methyl-N-(2-phenoxyethyl)amino]quinazoline]	–	–	–	Mortality rate (%), 0.5mg test cpd/10 cockroaches/bottle [2]: 85%; Mortality rate (%), 1mg test cpd/10 cockroaches/bottle [2]: 100%
C=CCN(CCOc1ccccc1C)c1ncnc2ccccc12 [Compound No. 8, 4-{N-allyl-N-[2-(2-methylphenoxy)ethyl]amino}quinazoline]	ii (all fish dead at 10 ppm but alive at 0.5 ppm)	5	0	–
Cc1ccccc1OCCN(Cc1ccccc1)c1ncnc2ccccc12 [compound 3, 4-{N-benzyl-N-[2-(2-methylphenoxy)ethyl]amino}quinazoline]	i (all fish alive at 10 ppm)	11	0	–
CCN(CCOc1ccccc1)c1ncnc2ccccc12 [compound 5, 4-[N-ethyl-N-(2-phenoxyethyl)amino]quinazoline]	–	–	6	–
CCCN(CCOc1ccccc1C)c1ncnc2ccccc12 [compound 6, 4-{N-[2-(2-methylphenoxy)ethyl]-N-propylamino}quinazoline]	–	0	0	–
Cc1ccccc1OCCN(c1ncnc2ccccc12)C(C)C [compound 7, 4-{N-isopropyl-N-[2-(2-methylphenoxy)ethyl]amino}quinazoline]	ii (all fish dead at 10 ppm but alive at 0.5 ppm)	–	0	–
CN(CCOc1ccccc1Cl)c1ncnc2ccccc12 [compound 11, 4-{N-[2-(2-chlorophenoxy)ethyl]-N-methylamino}quinazolone]	–	3	–	–
CCC(C)c1ccccc1OCCN(C)c1ncnc2ccccc12 (centres unmarked) [compound 12, 4-{N-methyl-N-[2-(2-sec-butylphenoxy)ethyl]amino}quinazoline]	–	15	–	Mortality rate (%), 0.5mg test cpd/10 cockroaches/bottle [2]: 90%; Mortality rate (%), 1mg test cpd/10 cockroaches/bottle [2]: 100%
COc1ccccc1OCCN(C)c1ncnc2ccccc12 [compound 16, 4-{N-[2-(2-methoxyphenoxy)ethyl]-N-methylamino}quinazoline]	–	13	–	–
CN(CCOc1ccc(Cl)cc1)c1ncnc2ccccc12 [compound 19, 4-{N-[2-(4-chlorophenoxy)ethyl]-N-methylamino}quinazoline]	–	–	–	pest or weed control at 500 ppm [5]: 80%; Extent of ingestion [5]: ±; Extent of ingestion [6]: +; Mortality rate (%), 0.5mg test cpd/10 cockroaches/bottle [2]: 85%; Mortality rate (%), 1mg test cpd/10 cockroaches/bottle [2]: 100%
Cc1cccc(OCCN(C)c2ncnc3ccccc23)c1 [compound 20, 4-{N-methyl-N-[2-(3-methylphenoxy)ethyl]amino}quinazoline]	–	–	–	Mortality rate (%), 0.5mg test cpd/10 cockroaches/bottle [2]: 90%; Mortality rate (%), 1mg test cpd/10 cockroaches/bottle [2]: 100%
CN(CCOc1cccc(Cl)c1)c1ncnc2ccccc12 [compound 23, 4-{N-[2-(3-chlorophenoxy)ethyl]-N-methylamino}quinazoline]	–	–	–	Mortality rate (%), 0.5mg test cpd/10 cockroaches/bottle [2]: 85%; Mortality rate (%), 1mg test cpd/10 cockroaches/bottle [2]: 100%
CCCN(CCOc1ccccc1C(C)C)c1ncnc2ccccc12 [compound 24, 4-{N-[2-(2-isopropylphenoxy)ethyl]-N-propylamino}quinazoline]	–	–	0	–

Structure (SMILES)	Toxicity ranking [1]	Diseased area (%) [3] [%]	Diseased area (%) [4] [%]	further results
CCN(CCOc1ccccc1C(C)C)c1ncnc2ccccc12 [compound 27, 4-{N-ethyl-N-[2-(2-isopropylphenoxy)ethyl]amino}quinazoline]	–	–	0	–
CCCCN(CCOc1ccccc1C(C)C)c1ncnc2ccccc12 [compound 28, 4{N-butyl-N-[2-(2-isopropylphenoxy)ethyl]amino}quinazoline]	–	–	0	–
CC(C)c1ccccc1OCCN(c1ncnc2ccccc12)C(C)C [compound 29, 4-{N-isopropyl-N-[2-(2-isopropylphenoxy)ethyl]amino}quinazoline]	–	–	–	pest or weed control at 500 ppm [5]: 60%; Extent of ingestion [5]: ± to +
CCCN(CCOc1ccc(C)cc1C)c1ncnc2ccccc12 [compound 33, 4-{N-[2-(2,4-dimethylphenoxy)ethyl]-N-propylamino}quinazoline]	–	–	0	Mortality rate (%), 0.5mg test cpd/10 cockroaches/bottle [2]: 90%; Mortality rate (%), 1mg test cpd/10 cockroaches/bottle [2]: 100%
CCCCN(CCOc1ccc(C)cc1C)c1ncnc2ccccc12 [compound 35, 4-{N-butyl-N-[2-(2,4-dimethylphenoxy)ethyl]amino}quinazoline]	ii (all fish dead at 10 ppm but alive at 0.5 ppm)	–	0	–
Cc1ccc(OCCN(Cc2ccccc2)c2ncnc3ccccc23)c(C)c1 [compound 36, 4-{N-benzyl-N-[2-(2,4-dimethylphenoxy)ethyl]amino}quinazoline]	ii (all fish dead at 10 ppm but alive at 0.5 ppm)	–	0	–
Cc1ccc(OCCN(c2ncnc3ccccc23)C2CCCCC2)c(C)c1 [compound 37, 4-{N-cyclohexyl-N-[2-(2,4-dimethylphenoxy)ethyl]amino}quinazoline]	–	–	–	pest or weed control at 500 ppm [5]: 60%; Extent of ingestion [5]: ± to +
CCCN(CCOc1ccc(Cl)cc1C)c1ncnc2ccccc12 [compound 39, 4-{N-[2-(4-chloro-2-methylphenoxy)ethyl]-N-propylamino}quinazoline]	ii (all fish dead at 10 ppm but alive at 0.5 ppm)	9	0	Mortality rate (%), 0.5mg test cpd/10 cockroaches/bottle [2]: 85%; Mortality rate (%), 1mg test cpd/10 cockroaches/bottle [2]: 100%
Cc1cc(Cl)ccc1OCCN(c1ncnc2ccccc12)C(C)C [compound 40, 4-{N-[2-(4-chloro-2-methylphenoxy)ethyl]-N-isopropylamino}quinazoline]	i (all fish alive at 10 ppm)	–	0	–
CCCCN(CCOc1ccc(Cl)cc1C)c1ncnc2ccccc12 [compound 41, 4-{N-butyl-N-[2-(4-chloro-2-methylphenoxy)ethyl]amino}quinazoline]	–	–	–	pest or weed control at 500 ppm [5]: 90%; Extent of ingestion [5]: ±; Extent of ingestion [6]: ± to +; Mortality rate (%), 0.5mg test cpd/10 cockroaches/bottle [2]: 85%; Mortality rate (%), 1mg test cpd/10 cockroaches/bottle [2]: 100%
Cc1cc(Cl)ccc1OCCN(Cc1ccccc1)c1ncnc2ccccc12 [compound 42, 4-{N-benzyl-N-[2-(4-chloro-2-methylphenoxy)ethyl]amino}quinazoline]	–	–	–	pest or weed control at 500 ppm [5]: 60%; Extent of ingestion [5]: ± to +
CC(C)c1ccccc1OCCN(c1ncnc2ccccc12)C1CCCCC1 [compound 46, 4-{N-cyclohexyl-N-[2-(2-isopropylphenoxy)ethyl]amino}quinazoline]	–	0	–	–
CCCN(CCOc1cc(C(C)C)ccc1C)c1ncnc2ccccc12 [compound 48, 4-{N-[2-(5-isopropyl-2-methylphenoxy)ethyl]-N-propylamino}quinazoline]	–	–	0	–
CCCCN(CCOc1cc(C(C)C)ccc1C)c1ncnc2ccccc12 [compound 49, 4-{N-butyl-N-[2-(5-isopropyl-2-methylphenoxy)ethyl]amino}quinazoline]	–	–	0	–
CC(C)=CCN(CCOc1ccccc1C(C)C)c1ncnc2ccccc12 [compound 53, 4-{N-[2-(2-isopropylphenoxy)ethyl]-N-(3-methyl-2-butenyl)amino}quinazoline]	ii (all fish dead at 10 ppm but alive at 0.5 ppm)	0	–	–
CC(C)c1ccccc1OCCN(C)c1ncnc2ccccc12.O=C(O)C(=O)O [compound 54, 4-{N-[2-(2-isopropylphenoxy)ethyl]-N-methylamino}quinazoline oxalate]	–	0	–	–
